Measured values as given in patent publication US9095138B2, “Isoxazoline insecticides” (E.I. du Pont de Nemours and Company, priority 2007, dated 2015).

Key:
[1] = test system: diamondback moth (Plutella xylostella); assay: Test A: control of diamondback moth on radish plant, foliar spray; format: in vivo; details: sprayed at 50 ppm; neonate larvae on radish; assessed after 6 days; replicated three times
Source text: For evaluating control of diamondback moth (Plutella xylostella) the test unit consisted of a small open container with a 12-14-day-old radish plant inside. This was pre-infested with about 50 neonate larvae that were dispensed into the test unit via corn-cob grits using a bazooka inoculator. The larvae moved onto the test plant after being dispensed into the test unit.
(§1) Test compounds were formulated using a solution containing 10% acetone, 90% water and 300 ppm X-77™ Spreader Lo-Foam Formula non-ionic surfactant containing alkylarylpolyoxyethylene, free fatty acids, glycols and isopropanol (Loveland Industries, Inc. Greeley, Colo., USA). The formulated compounds were applied in 1 mL of liquid through a SUJ2 atomizer nozzle with ⅛ JJ custom body (Spraying Systems Co. Wheaton, Ill., USA) positioned 1.27 cm (0.5 inches) above the top of each test unit. All experimental compounds in these tests were sprayed at 50 ppm, and the test was replicated three times. After spraying of the formulated test compound, each test unit was allowed to dry for 1 h and then a black, screened cap was placed on top. The test units were held for 6 days in a growth chamber at 25° C. and 70% relative humidity. Plant feeding damage was then visually assessed based on foliage consumed and a pest mortality rating was also counted and calculated for each test unit.

[2] = test system: western flower thrips (Frankliniella occidentalis); assay: Test E: control of western flower thrips on Soleil bean plant, contact and/or systemic; format: in vivo; details: adult thrips, assessed after 6 days, replicated three times
Description: as §1
For evaluating control of the western flower thrips (Frankliniella occidentalis) through contact and/or systemic means, the test unit consisted of a small open container with a 5-7 day old Soleil Bean plant inside. Test compounds were formulated and sprayed as described for Test A. All experimental compounds in these tests were sprayed at 250 or 50 ppm as noted, and the test was replicated three times. After spraying, the test units were allowed to dry for 1 hour and then 22-27 adult thrips were added to each unit and then a black, screened cap was placed on top. The test units were held for 6 days at 25° C. and 45-55% relative humidity. A mortality rating was assessed along with a plant damage rating for each test unit.

Structure (SMILES): CC(C)(NC(=O)c1ccc(C2=NOC(c3cc(Cl)cc(Cl)c3)(C(F)(F)F)C2)c2ccccc12)C(=O)NCC1CC1 (stereo not drawn) [Compound 43]
- control efficacy (feeding damage or mortality): very good to excellent levels [1]: 20% or less feeding damage or 80% or more mortality
- control efficacy (feeding damage or mortality): very good to excellent levels ([2]; sprayed at 50 ppm): 20% or less feeding damage or 80% or more mortality
- control efficacy (feeding damage or mortality): very good to excellent levels ([2]; sprayed at 250 ppm): 20% or less feeding damage or 80% or more mortality

Structure (SMILES): O=C(NCC(=O)N1CCCCC1)c1ccc(C2=NOC(c3cc(Cl)cc(Cl)c3)(C(F)(F)F)C2)c2ccccc12 (stereo not drawn) [Compound 89]
- control efficacy (feeding damage or mortality): very good to excellent levels [1]: 20% or less feeding damage or 80% or more mortality
- control efficacy (feeding damage or mortality): very good to excellent levels ([2]; sprayed at 250 ppm): 20% or less feeding damage or 80% or more mortality

Structure (SMILES): O=C(O)[C@@H]1CCCN1C(=O)c1ccc(C2=NOC(c3cc(Cl)cc(Cl)c3)(C(F)(F)F)C2)c2ccccc12 (stereo partly drawn) [Compound 99]
- control efficacy (feeding damage or mortality): very good to excellent levels [1]: 20% or less feeding damage or 80% or more mortality

Structure (SMILES): CN(CCCNC(=O)c1ccc(C2=NOC(c3cc(Cl)cc(Cl)c3)(C(F)(F)F)C2)c2ccccc12)C(=O)OC(C)(C)C (racemic) [Compound 3]
- control efficacy (feeding damage or mortality): very good to excellent levels [1]: 20% or less feeding damage or 80% or more mortality
- control efficacy (feeding damage or mortality): very good to excellent levels ([2]; sprayed at 50 ppm): 20% or less feeding damage or 80% or more mortality
- control efficacy (feeding damage or mortality): very good to excellent levels ([2]; sprayed at 250 ppm): 20% or less feeding damage or 80% or more mortality

Structure (SMILES): CS(=O)(=O)NC(=O)c1ccc(C2=NOC(c3cc(Cl)cc(Cl)c3)(C(F)(F)F)C2)c2ccccc12 (racemic) [Compound 10]
- control efficacy (feeding damage or mortality): very good to excellent levels [1]: 20% or less feeding damage or 80% or more mortality

Structure (SMILES): O=C(CNC(=O)c1ccc(C2=NOC(c3cc(Cl)cc(Cl)c3)(C(F)(F)F)C2)c2ccccc12)Nc1ccc(C(F)(F)F)cc1 (stereo not drawn) [Compound 46]
- control efficacy (feeding damage or mortality): very good to excellent levels [1]: 20% or less feeding damage or 80% or more mortality

Structure (SMILES): O=C(CNC(=O)c1ccc(C2=NOC(c3cccc(F)c3)(C(F)(F)F)C2)c2ccccc12)NC1CC1 (stereo not drawn) [Compound 63]
- control efficacy (feeding damage or mortality): very good to excellent levels [1]: 20% or less feeding damage or 80% or more mortality

Structure (SMILES): CC(NC(=O)c1ccc(C2=NOC(c3cc(Cl)cc(OCC(F)(F)F)c3)(C(F)(F)F)C2)c2ccccc12)C(=O)O (mixture of isomers) [Compound 37]
- control efficacy (feeding damage or mortality): very good to excellent levels [1]: 20% or less feeding damage or 80% or more mortality

Structure (SMILES): O=C(O)CNC(=O)c1ccc(C2=NOC(c3cc(Cl)cc(OC(F)(F)F)c3)(C(F)(F)F)C2)c2ccccc12 (racemic) [Compound 34]
- control efficacy (feeding damage or mortality): very good to excellent levels [1]: 20% or less feeding damage or 80% or more mortality

Structure (SMILES): O=C(CNC(=O)c1ccc(C2=NOC(c3cccc(OC(F)(F)F)c3)(C(F)(F)F)C2)c2ccccc12)NCc1ccccn1 (stereo not drawn) [Compound 59]
- control efficacy (feeding damage or mortality): very good to excellent levels [1]: 20% or less feeding damage or 80% or more mortality

Structure (SMILES): CSCCNC(=O)CNC(=O)c1ccc(C2=NOC(c3cc(Cl)cc(Cl)c3)(C(F)(F)F)C2)c2ccccc12 (stereo not drawn) [Compound 48]
- control efficacy (feeding damage or mortality): very good to excellent levels [1]: 20% or less feeding damage or 80% or more mortality
- control efficacy (feeding damage or mortality): very good to excellent levels ([2]; sprayed at 250 ppm): 20% or less feeding damage or 80% or more mortality

Structure (SMILES): O=C(O)CNC(=O)c1ccc(C2=NOC(c3cc(Cl)c(Cl)c(Cl)c3)(C(F)(F)F)C2)c2ccccc12 (racemic) [Compound 8]
- control efficacy (feeding damage or mortality): very good to excellent levels [1]: 20% or less feeding damage or 80% or more mortality
- control efficacy (feeding damage or mortality): very good to excellent levels ([2]; sprayed at 250 ppm): 20% or less feeding damage or 80% or more mortality

Structure (SMILES): O=C(CNC(=O)c1ccc(C2=NOC(c3cc(Cl)cc(Cl)c3)(C(F)(F)F)C2)c2ccccc12)NCc1ccccn1 (stereo not drawn) [Compound 45]
- control efficacy (feeding damage or mortality): very good to excellent levels [1]: 20% or less feeding damage or 80% or more mortality
- control efficacy (feeding damage or mortality): very good to excellent levels ([2]; sprayed at 250 ppm): 20% or less feeding damage or 80% or more mortality

Structure (SMILES): O=C(O)CNC(=O)c1ccc(C2=NOC(c3cc(Br)cc(C(F)(F)F)c3)(C(F)(F)F)C2)c2ccccc12 (racemic) [Compound 23]
- control efficacy (feeding damage or mortality): very good to excellent levels [1]: 20% or less feeding damage or 80% or more mortality

Structure (SMILES): O=C(O)CNC(=O)c1ccc(C2=NOC(c3cc(Cl)cc(Cl)c3)(C(F)(F)F)C2)c2ccccc12 (racemic) [Compound 12]
- control efficacy (feeding damage or mortality): very good to excellent levels [1]: 20% or less feeding damage or 80% or more mortality

Structure (SMILES): O=C(CNC(=O)c1ccc(C2=NOC(c3cc(F)cc(F)c3)(C(F)(F)F)C2)c2ccccc12)NC1CC1 (stereo not drawn) [Compound 62]
- control efficacy (feeding damage or mortality): very good to excellent levels [1]: 20% or less feeding damage or 80% or more mortality

Structure (SMILES): CC(C)[C@@H](NC(=O)c1ccc(C2=NOC(c3cc(C(F)(F)F)cc(C(F)(F)F)c3)(C(F)(F)F)C2)c2ccccc12)C(=O)O (stereo partly drawn) [Compound 39]
- control efficacy (feeding damage or mortality): very good to excellent levels [1]: 20% or less feeding damage or 80% or more mortality

Structure (SMILES): O=C([O-])CNC(=O)c1ccc(C2=NOC(c3cc(Cl)cc(Cl)c3)(C(F)(F)F)C2)c2ccccc12.[Na+] (racemic) [Compound 13]
- control efficacy (feeding damage or mortality): very good to excellent levels [1]: 20% or less feeding damage or 80% or more mortality

Structure (SMILES): CNC(=O)[C@@H]1CCCN1C(=O)c1ccc(C2=NOC(c3cc(Cl)cc(Cl)c3)(C(F)(F)F)C2)c2ccccc12 (stereo partly drawn) [Compound 103]
- control efficacy (feeding damage or mortality): very good to excellent levels [1]: 20% or less feeding damage or 80% or more mortality

Structure (SMILES): COC(=O)[C@@H]1CCCN1C(=O)c1ccc(C2=NOC(c3cc(Cl)cc(Cl)c3)(C(F)(F)F)C2)c2ccccc12 (stereo partly drawn) [Compound 97]
- control efficacy (feeding damage or mortality): very good to excellent levels [1]: 20% or less feeding damage or 80% or more mortality

Structure (SMILES): CC(C)=NOC(=O)CNC(=O)c1ccc(C2=NOC(c3cc(C(F)(F)F)cc(C(F)(F)F)c3)(C(F)(F)F)C2)c2ccccc12 (racemic) [Compound 25]
- control efficacy (feeding damage or mortality): very good to excellent levels [1]: 20% or less feeding damage or 80% or more mortality

Structure (SMILES): CCNC(=O)[C@H]1CCCN1C(=O)c1ccc(C2=NOC(c3cc(Cl)cc(Cl)c3)(C(F)(F)F)C2)c2ccccc12 (stereo partly drawn) [Compound 106]
- control efficacy (feeding damage or mortality): very good to excellent levels [1]: 20% or less feeding damage or 80% or more mortality
- control efficacy (feeding damage or mortality): very good to excellent levels ([2]; sprayed at 50 ppm): 20% or less feeding damage or 80% or more mortality
- control efficacy (feeding damage or mortality): very good to excellent levels ([2]; sprayed at 250 ppm): 20% or less feeding damage or 80% or more mortality

Structure (SMILES): CCS(=O)(=O)N1CCN(C(=O)CNC(=O)c2ccc(C3=NOC(c4cccc(C(F)(F)F)c4)(C(F)(F)F)C3)c3ccccc23)CC1 (stereo not drawn) [Compound 92]
- control efficacy (feeding damage or mortality): very good to excellent levels [1]: 20% or less feeding damage or 80% or more mortality

Structure (SMILES): CSCCNC(=O)CNC(=O)c1ccc(C2=NOC(c3cccc(Br)c3)(C(F)(F)F)C2)c2ccccc12 (stereo not drawn) [Compound 57]
- control efficacy (feeding damage or mortality): very good to excellent levels [1]: 20% or less feeding damage or 80% or more mortality

Structure (SMILES): CCNC(=O)[C@@H]1CCCN1C(=O)c1ccc(C2=NOC(c3cc(Cl)cc(Cl)c3)(C(F)(F)F)C2)c2ccccc12 (stereo partly drawn) [Compound 105]
- control efficacy (feeding damage or mortality): very good to excellent levels [1]: 20% or less feeding damage or 80% or more mortality

Structure (SMILES): CC(C)(NC(=O)c1ccc(C2=NOC(c3cc(Cl)cc(Cl)c3)(C(F)(F)F)C2)c2ccccc12)C(=O)O (racemic) [Compound 6]
- control efficacy (feeding damage or mortality): very good to excellent levels [1]: 20% or less feeding damage or 80% or more mortality
- control efficacy (feeding damage or mortality): very good to excellent levels ([2]; sprayed at 50 ppm): 20% or less feeding damage or 80% or more mortality
- control efficacy (feeding damage or mortality): very good to excellent levels ([2]; sprayed at 250 ppm): 20% or less feeding damage or 80% or more mortality

Structure (SMILES): O=C(NC(C(=O)O)c1ccccc1)c1ccc(C2=NOC(c3cc(Cl)cc(Cl)c3)(C(F)(F)F)C2)c2ccccc12 (mixture of isomers) [Compound 5]
- control efficacy (feeding damage or mortality): very good to excellent levels [1]: 20% or less feeding damage or 80% or more mortality

Structure (SMILES): CC(NC(=O)c1ccc(C2=NOC(c3cc(Cl)cc(OC(F)(F)F)c3)(C(F)(F)F)C2)c2ccccc12)C(=O)O (mixture of isomers) [Compound 35]
- control efficacy (feeding damage or mortality): very good to excellent levels [1]: 20% or less feeding damage or 80% or more mortality

Structure (SMILES): COC(=O)[C@H]1CCCN1C(=O)c1ccc(C2=NOC(c3cc(Cl)cc(Cl)c3)(C(F)(F)F)C2)c2ccccc12 (stereo partly drawn) [Compound 98]
- control efficacy (feeding damage or mortality): very good to excellent levels [1]: 20% or less feeding damage or 80% or more mortality
- control efficacy (feeding damage or mortality): very good to excellent levels ([2]; sprayed at 250 ppm): 20% or less feeding damage or 80% or more mortality

Structure (SMILES): O=C(O)CNC(=O)c1ccc(C2=NOC(c3cc(Cl)cc(C(F)(F)F)c3)(C(F)(F)F)C2)c2ccccc12 (racemic) [Compound 26]
- control efficacy (feeding damage or mortality): very good to excellent levels [1]: 20% or less feeding damage or 80% or more mortality
- control efficacy (feeding damage or mortality): very good to excellent levels ([2]; sprayed at 250 ppm): 20% or less feeding damage or 80% or more mortality

Structure (SMILES): O=C(O)CCNC(=O)c1ccc(C2=NOC(c3cc(Cl)cc(Cl)c3)(C(F)(F)F)C2)c2ccccc12 (racemic) [Compound 7]
- control efficacy (feeding damage or mortality): very good to excellent levels [1]: 20% or less feeding damage or 80% or more mortality
